Reference: patent US20020137929A1, “1 - (3-heterocyclylphenyl) isothiourea, -isourea, -guanidine and -amidine herbicidal agents” (Intellectual Property Department, BASF Aktiengesellschaft, priority 1998, published 2002)

How the values were obtained:
AMBEL (Ragweed, Common) = experiment: Postemergence herbicidal evaluation; type: in vivo, Ambrosia artemisifolia
Summary of the method: (§1)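 Two-week seedlings sprayed postemergence at 40 psi; formulation: 1:1 acetone/water, 0.5% TWEEN 20; application ≈0.0156–0.500 kg/ha. Greenhouse grow-out, then 0–9 visual scoring at 4–5 weeks.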

CASOB (Sicklepod) = experiment: Postemergence herbicidal evaluation; type: in vivo, Cassia obtusifolia
Summary of the method: as §1

[1] = tested on: CHEAL (Lambsquarters, Common); experiment: Postemergence herbicidal evaluation; type: in vivo, Chenopodium album
Summary of the method: as §1

[2] = tested on: IPOHE (Morningglory, Ivyleaf); experiment: Postemergence herbicidal evaluation; type: in vivo, Ipomoea hederacea
Summary of the method: as §1

ECHCG (Barnyardgrass) = experiment: Postemergence herbicidal evaluation; type: in vivo, Echinochloa crus-galli
Summary of the method: as §1

[3] = tested on: GLXMAW (Soybean, Williams); experiment: Postemergence herbicidal evaluation; type: in vivo, Glycine max, (L.) Merr. cv Williams
Summary of the method: as §1

[4] = tested on: TRZAWR (Wheat, Winter, cv Riband); experiment: Postemergence herbicidal evaluation; type: in vivo, Triticum aestivum
Summary of the method: as §1

MOOVA (Monochoria) = experiment: Preemergence weed control under flooded paddy conditions; type: in vivo, Monochoria vaginalis; conditions: rated 3-4 weeks after treatment
Summary of the method: (§2)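 Herbicidal effect is scored visually on a 0-9 scale against an untreated control, three to four weeks after compounds are pipetted into the flood water (1.5 to 3 cm deep) over seeds planted in silt loam at 0.5 cm depth. Rates: about 0.0313 to 0.500 kg/ha.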

[5] = tested on: SAGPY (Arrowhead (Pygmaea)); experiment: as above; type: in vivo, Sagittaria pygmaea; conditions: rated 3-4 weeks after treatment
Summary of the method: as §2

With “2-{{2-Chloro-5-[3,6-dihydro-3-methyl-2,6-dioxo-4-(trifluoromethyl)-1(2H)-pyrimidinyl]-4-fluoro-phenyl}imino}-4-oxo-3,5-thiazolidenediacetic acid, 3-ethyl (2-propynyl) ester, (2:1) mixture with di-2-propynyl ester [Compound 58]” the “Postemergence herbicidal rating AMBEL” value (AMBEL (Ragweed, Common); Rate 0.0158 kg/ha) was 9.0, the “Postemergence herbicidal rating AMBEL” value (AMBEL (Ragweed, Common); Rate 0.0315 kg/ha) was 9.0 and the “Postemergence herbicidal rating AMBEL” value (AMBEL (Ragweed, Common); Rate 0.0630 kg/ha) was 9.0. The “Postemergence herbicidal rating CASOB” value (CASOB (Sicklepod); Rate 0.0158 kg/ha) was 0.0, the “Postemergence herbicidal rating CASOB” value (CASOB (Sicklepod); Rate 0.0315 kg/ha) was 2.0 and the “Postemergence herbicidal rating CASOB” value (CASOB (Sicklepod); Rate 0.0630 kg/ha) was 3.0. For the same substance, the “Postemergence herbicidal rating CHEAL” value ([1]; Rate 0.0158 kg/ha) was 9.0, the “Postemergence herbicidal rating CHEAL” value ([1]; Rate 0.0315 kg/ha) was 9.0 and the “Postemergence herbicidal rating CHEAL” value ([1]; Rate 0.0630 kg/ha) was 9.0. For the same substance, the “Postemergence herbicidal rating IPOHE” value ([2]; Rate 0.0158 kg/ha) was 9.0, the “Postemergence herbicidal rating IPOHE” value ([2]; Rate 0.0315 kg/ha) was 9.0 and the “Postemergence herbicidal rating IPOHE” value ([2]; Rate 0.0630 kg/ha) was 9.0. For the same substance, the “Postemergence herbicidal rating ECHCG” value (ECHCG (Barnyardgrass); Rate 0.0158 kg/ha) was 7.0, the “Postemergence herbicidal rating ECHCG” value (ECHCG (Barnyardgrass); Rate 0.0315 kg/ha) was 7.0 and the “Postemergence herbicidal rating ECHCG” value (ECHCG (Barnyardgrass); Rate 0.0630 kg/ha) was 9.0. The “Postemergence herbicidal rating GLXMAW” value ([3]; Rate 0.0158 kg/ha) was 7.0, the “Postemergence herbicidal rating GLXMAW” value ([3]; Rate 0.0315 kg/ha) was 7.0 and the “Postemergence herbicidal rating GLXMAW” value ([3]; Rate 0.0630 kg/ha) was 8.5. The “Postemergence herbicidal rating TRZAWR” value ([4]; Rate 0.0158 kg/ha) was 5.0, the “Postemergence herbicidal rating TRZAWR” value ([4]; Rate 0.0315 kg/ha) was 5.0 and the “Postemergence herbicidal rating TRZAWR” value ([4]; Rate 0.0630 kg/ha) was 7.5. For the same substance, the “MOOVA herbicidal effect rating” value (MOOVA (Monochoria); 0.0313 kg/ha) was 0.0, the “Herbicidal rating MOOVA” value (MOOVA (Monochoria); 0.0625 kg/ha) was 0.0 and the “Herbicidal rating MOOVA” value (MOOVA (Monochoria); 0.1250 kg/ha) was 3.0. For the same substance, the “Herbicidal rating MOOVA” value (MOOVA (Monochoria); 0.2500 kg/ha) was 9.0, the “SAGPY herbicidal effect rating” value ([5]; 0.0313 kg/ha) was 0.0 and the “Herbicidal rating SAGPY” value ([5]; 0.0625 kg/ha) was 0.0. For the same substance, the “Herbicidal rating SAGPY” value ([5]; 0.1250 kg/ha) was 0.0 and the “Herbicidal rating SAGPY” value ([5]; 0.2500 kg/ha) was 4.0.
